Patent publication US10577361B2, “Dopamine D3 receptor antagonists having a morpholine moiety” (Indivior UK Limited, priority 2015, dated 2020)
Structures can show the parent of a compound that is named as a salt.

Assays:
[1] = target: T1, human dopamine receptor type 2, long variant (hD2L) (Homo sapiens (Human), UniProt P14416); test: Functional calcium assay at hD2 recombinant receptor (CHO-Gα16-hD2L cells, FLIPR); type: cell-based; conditions: functional pKi at hD2, dopamine EC80 challenge; for Ki: read-out: D2 fp Ki (converted)
Experimental: Functional Calcium Assay at hD2 Recombinant Receptor CHO cells stably expressing human dopamine receptor type 2, long variant (hD2L), coupled to Gα16 protein (CHO-Gα16-hD2L) were seeded into black walled clear-base 384-well plates at a density of 8,000 cells per well and grown overnight at 37° C. […] Compounds of invention were dissolved in DMSO and 200-fold diluted with assay buffer plus 0.01% Pluronic F-127. […] The fluorescence before compound addition (baseline) and before and after addition of agonist challenge was monitored.

[2] = target: T1, human dopamine receptor type 2, long variant (hD2L); test: [3H]-Spiperone binding assay at hD2 recombinant receptor (CHO-Gα16-hD2L membranes)
Experimental: [^3H]-Spiperone Binding Assay at hD2 Recombinant Receptor CHO cells stably expressing human dopamine receptor type 2, long variant (hD2L), coupled to Gα16 protein (CHO-Gα16-hD2L) were re-suspended in 20 mM HEPES, 2 mM EDTA (pH 7.4), homogenised and centrifuged at 40,000 g (20 min, 4° C.). After re-suspension, homogenization and centrifugation as above, the final pellet was re-suspended in 20 mM HEPES, 100 mM NaCl, 10 mM MgCl2, 1 mM EDTA (pH 7.4) and aliquots were kept at −80° C. [^3H]-Spiperone Binding experiments were performed in 96 deep-well polypropylene plates in 50 mM Tris/HCl, 120 mM NaCl, 5 mM KCl, 5 mM MgCl2 (pH 7.4). […] Displacement was performed in the presence of 0.08 nM [^3H]-Spiperone. The reaction was initiated by the addition of membrane suspension (2 μg of protein for CHO-hD2 membranes) and lasted for 120 min at 23° C. in a final volume of 1000 μl. Non specific binding (NSB) was determined in the presence of 0.1 μM Spiperone. The binding reaction was stopped by rapid filtration through GF/B filterplates pre-soaked in 0.5% polyetylenimmine (PEI) using a Packard cell harvester. After washing with ice-cold 0.9% NaCl, the plate was left to dry before the addition of Microscint 20 (50 μl/well, PerkinElmer). Radioactivity was counted with a TopCount (PerkinElmer). […] Saturation binding experiments were performed similar to the competition binding experiments using a radioligand concentrations ranging from 0.011 to 3.0 nM. […] Is Clozapine selective for the dopamine D4 receptor? […] Real-time analysis of dopamine: antagonist interactions at recombinant human D2long receptor upon modulation of its activation state. Brit. J.

[3] = target: human dopamine type 3 receptor (hD3) (Homo sapiens (Human), UniProt P35462); test: [3H]-Spiperone binding assay at hD3 recombinant receptor (CHO-hD3 membranes); conditions: pKi only estimated to be accurate to about ±0.3-0.5
Experimental: [^3H]-Spiperone Binding Assay at hD3 and hD4 recombinant receptors CHO cells transiently transfected with human dopamine type 3 or 4 receptors (CHO-hD3 or CHO-hD4, respectively), were re-suspended in 20 mM HEPES, 2 mM EDTA (pH 7.4), homogenised and centrifuged at 40,000 g (20 min, 4° C.). After re-suspension, homogenization and centrifugation as above, the final pellet was re-suspended in 20 mM HEPES, 100 mM NaCl, 10 mM MgCl2, 1 mM EDTA (pH 7.4) and aliquots were kept at −80° C. [^3H]-Spiperone Binding experiments were performed in 96 deep-well polypropylene plates in 50 mM Tris/HCl, 120 mM NaCl, 5 mM KCl, 5 mM MgCl2 (pH 7.4). Compounds of invention were serially diluted in DMSO at 100 fold final concentrations in the assay (1% DMSO final in the assay). Displacement was performed in the presence of 0.3 nM [^3H]-Spiperone. The reaction was initiated by the addition of membrane suspension (4 μg and 12 μg of protein for CHO-hD3- and CHO-hD4 membranes, respectively) and lasted for 90 or 100 min (for hD3 or hD4 membranes, respectively) at 23° C. in a final volume of 500 μl. Non specific binding (NSB) was determined in the presence of 1 μM Spiperone. The binding reaction was stopped by rapid filtration through GF/B filterplates pre-soaked in 0.5% polyetylenimmine (PEI) using a Packard cell harvester. After washing with ice-cold 0.9% NaCl, the plate was left to dry before the addition of Microscint 20 ([…], PerkinElmer). Radioactivity was counted with a TopCount (PerkinElmer). Data were analysed by non-linear regression analysis using GraphPad Prism 5.0 (GraphPad Software). Saturation binding experiments were performed similar to the competition binding experiments using a radioligand concentrations ranging from 0.015 to 4.0 nM. […] Characterization of the human dopamine D3 receptor expressed in transfected cell lines.

Chain of human dopamine type 3 receptor (hD3) (P35462 whole entry): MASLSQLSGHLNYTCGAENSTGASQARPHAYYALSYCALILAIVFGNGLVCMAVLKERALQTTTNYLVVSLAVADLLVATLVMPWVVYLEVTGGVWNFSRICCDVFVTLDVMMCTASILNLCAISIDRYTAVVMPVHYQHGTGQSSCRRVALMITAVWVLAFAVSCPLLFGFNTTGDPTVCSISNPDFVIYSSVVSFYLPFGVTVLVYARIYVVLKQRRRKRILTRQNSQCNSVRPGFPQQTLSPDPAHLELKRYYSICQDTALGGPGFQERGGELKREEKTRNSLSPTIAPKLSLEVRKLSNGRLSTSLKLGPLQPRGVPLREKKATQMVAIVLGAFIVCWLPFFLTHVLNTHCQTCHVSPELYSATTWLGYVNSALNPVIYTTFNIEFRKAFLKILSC

For `Cc1ncoc1-c1nnc(SCCCN2CCO[C@H](c3ccc(C(F)(F)F)cc3)C2)n1C` (single isomer, unassigned) [Example 9, (2R or 2S)-4-(3-{[4-methyl-5-(4-methyl-1,3-oxazol-5-yl)-4H-1,2,4-triazol-3-yl]sulfanyl)}propyl)-2-[4-(trifluoromethyl)phenyl]morpholine], the “D2 fp Ki” value [1] was 5.64 and the “D2 p Ki” value [2] was 5.36.

In the case of `Cc1ncoc1-c1nnc(SCCCN2CCOC(c3ccc(F)cc3)C2)n1C` (centres unmarked) [Example 1], the “D3 p Ki” value [3] is reported as 6.37 and the Ki [1] is reported as greater than 10 µM.

Work on `Cc1ncoc1-c1nnc(SCCCN2CCO[C@H](c3ccc(C(F)(F)F)cc3)C2)n1C` (single isomer, unassigned) [Example 10, (2R or 2S)-4-(3-({[4-methyl-5-(4-methyl-1,3-oxazol-5-yl)-4H-1,2,4-triazol-3-yl]sulfanyl}propyl)-2-[4-(trifluoromethyl)phenyl]morpholine hydrochloride] yielded a Ki [1] greater than 10 µM and a Ki ([2]; read-out: D2 p Ki (converted)) of 11.7 µM.

With `Cc1ncoc1-c1nnc(SCCCCN2CCOC(c3ccc(C(F)(F)F)cc3)C2)n1C` (centres unmarked) [Example 4, 4-(4-{[4-methyl-5-(4-methyl-1,3-oxazol-5-yl)-4H-1,2,4-triazol-3-yl]sulfanyl}butyl)-2-[4-(trifluoromethyl)phenyl]morpholine] the “D3 p Ki” value [3] was 7.05 and the Ki [1] was greater than 10 µM.

In the case of `Cc1ncoc1-c1nnc(SCCCN2CCOC(c3ccc(F)cc3)C2)n1C` (single isomer, unassigned) [Example 3, (2R or 2S)-2-(4-fluorophenyl)-4-(3-({[4-methyl-5-(4-methyl-1,3-oxazol-5-yl)-4H-1,2,4-triazol-3-yl]sulfanyl}propyl)morpholine], the “D3 p Ki” value [3] is reported as 6.56 and the “D2 fp Ki” value [1] is reported as less than 5.

For `Cc1ccc(C2CN(CCCSc3nnc(-c4ccc(-c5noc(C)n5)cc4)n3C)CCO2)cc1` (centres unmarked) [Example 37, 4-[3-({4-methyl-5-[4-(5-methyl-1,2,4-oxadiazol-3-yl)phenyl]-4H-1,2,4-triazol-3-yl}sulfanyl)propyl]-2-(4-methylphenyl)morpholine], the “D3 p Ki” value [3] was 7.07, the Ki [1] was 31.6 µM and the “D2 p Ki” value [2] was 4.50.

For `Cc1ncoc1-c1nnc(SCCCCN2CCO[C@H](c3ccc(C(F)(F)F)cc3)C2)n1C` (single isomer, unassigned) [Example 6, (2R or 2S)-4-(4-{[4-methyl-5-(4-methyl-1,3-oxazol-5-yl)-4H-1,2,4-triazol-3-yl]sulfanyl}butyl)-2-[4-(trifluoromethyl)phenyl]morpholine], the “D3 p Ki” value [3] was 7.11 and the “D2 fp Ki” value [1] was less than 5.

For `Cn1c(SCCCN2CCOC(c3ccc(C(F)(F)F)cc3)C2)nnc1-c1cccnc1` (centres unmarked) [Example 18, 4-(3-{[4-methyl-5-(pyridin-3-yl)-4H-1,2,4-triazol-3-yl]sulfanyl}propyl)-2-[4-(trifluoromethyl)phenyl]morpholine], the “D3 p Ki” value [3] was 6.77 and the “D2 p Ki” value [2] was 4.83.
